# From US8101740B2, “Positron emission tomography probes for imaging immune activation and selected cancers” (The Regents of the University of California, priority 2007, dated 2012)
# Tests used:
# [1] = microPET/CT in Fas^1pr systemic autoimmunity model; assay type: in vivo, B6-MRL-Fas^1pr/J mice
# [2] = probe accumulation in necropsy tissue of mouse strains incl. BDC-2.5 (type 1 diabetes model); assay type: in vivo, BDC-2.5 mice; conditions: necropsy tissue samples
# Description: Elevated retention of the [^18F]D-FAC probe in joints and the intestine over physiologic uptake values may reflect the presence of an active inflammatory processes that is characteristic of rheumatoid arthritis and inflammatory bowel disease, respectively. [^18F]D-FAC microPET can also be used to detect overt autoreactive immune activation in a BDC-2.5 mouse model that is prone to type 1 diabetes (FIG. 8). In FIG. 8A, the 1 mm coronal sections illustrate the pattern of [^18F]D-FAC probe accumulation in BDC-2.5 mice. (Abbreviations: CV, cervical LNs; AX, axillary LNs; BR, brachial LNs; IN, inguinal LNs; THY, Thymus; GI, Gastrointestinal tract; H, heart.) In FIG. 8B, [^18F]D-FAC accumulation is measured in necropsy tissue samples from BL/6, BALB/c, NOD LTJ, and BDC-2.5 mice.
# FIG. 8 presents the results of microPET/CT imaging performed on BDC-2.5 T cell receptor transgenic mice injected with the [^18F]D-FAC probe. The BDC-2.5 strain is a well-established animal model for type I (autoimmunity-based) diabetes. In FIG. 8A, the 1 mm coronal sections illustrate the pattern of the [^18F]D-FAC probe accumulation in BDC-2.5 mice. (Abbreviations: CV, cervical LNs; AX, axillary LNs; BR, brachial LNs; IN, inguinal LNs; THY, Thymus; GI, Gastrointestinal tract; H, heart.) In FIG. 8B, [^18F]D-FAC accumulation is measured in necropsy tissue samples from BL/6, BALB/c, NOD Ltj and BDC-2.5 mice. […]
# [3] = system: Bcr-Abl-expressing Ba/F3 cells and Bcr-Abl transformed bone marrow; test: microPET/CT of Bcr-Abl oncogene-induced leukemia models; assay type: in vivo, mouse; conditions: 1 hr after probe injection
# Procedure: (§1) In addition to immune diseases, [^18F]D-FAC may also be used to measure dysregulated nucleoside metabolism in cancer. To this end, we examined the utility of [^18F]D-FAC microPET in animal models representative of leukemia or lymphoma, melanoma, and glioma tumors (FIG. 12, where the images are 1 mm coronal sections from [^18F]D-FAC microPET/CT scans 1 hr after probe injection). In FIG. 12A, SCID mice were injected intravenously with Ba/F3 cells expressing p210 BCR-ABL and go on to develop aggressive disease with massive splenic infiltration that typically results in death within ˜15 days (mice shown were imaged on day 12). In FIG. 12B, the NOD SCID mice were transplanted with wild type total bone marrow cells infected with MSCV-GFP-IRES-P185 BCR-ABL retroviral stocks and the leukemic mice were imaged 28 days following transplantation. In FIG. 12C, C57BL/6 was injected subcutaneously with 1×10^5 B16 melanoma cells and imaged 7 days later. […] [^18F]D-FAC PET also detected implanted murine B16 cells (representative of malignant melanoma) and human U87 cells (representative of glioma tumors). […]
# Six to 8 week old mice with severe combined immunodeficiency (NOD SCID) were sublethally irradiated (275 rads) one day prior to reconstitution. […] Animals were monitored daily for signs of illness during a period of two months as previously described^10. […]
# murine B16 cells = test: microPET/CT of implanted B16 melanoma; assay type: in vivo, C57BL/6 mice; conditions: imaged 7 days after 1×10^5 cells subcutaneously
# Procedure: as §1, with “later. In FIG. 12D, SCID mice were injected subcutaneously with 1×10^6 U87 glioma cells and imaged 10 days later.” for “later.”
# [4] = biodistribution and radiation dosimetry in healthy human subjects; assay type: in vivo
# Procedure: [^18F]D-FAC was evaluated in humans to a preliminary degree, whereby we investigated the normal biodistribution and radiation dosimetry of [^18F]D-FAC in human subjects (FIG. 16). […] Emission scans were acquired 20, 48, and 76 min post injection and radiation dosimetry estimates were calculated using the Olinda® software. […] The radiation dosimetry estimates show high agreement with the dosimetry results obtained from the studies in mice. The dose-limiting organs were the urinary bladder wall and the kidneys.
smiles,measurement,setting,value
"Nc1ccn([C@@H]2O[C@H](CO)[C@@H](O)[C@@H]2[18F])c(=O)n1 [[^18F]D-FAC, 1-(2′-deoxy-2′-[^18F]fluoro-β-D-arabinofuranosyl)cytosine]",mice with enlarged LNs on microPET scans,[1]; Fas^1pr/J mice,9 out of 13
same,mice with probe-positive LNs,[1]; wild type mice,2 out of 19
same,"accumulation in spleen and lymph nodes among BL/6, BALB/c, NOD Ltj and BDC-2.5 mice",[2],highest levels
same,retention in the spleen,[3],increased
same,detection of implanted tumor cells by PET,murine B16 cells,detected
same,"absorbed dose, heart wall",[4]; 3 healthy male subjects,5.92E-02 rem/mCi
same,"absorbed dose, kidneys",[4]; 3 healthy male subjects,1.06E-01 rem/mCi
same,"absorbed dose, osteogenic cells",[4]; 3 healthy male subjects,6.69E-02 rem/mCi
same,"absorbed dose, small intestine",[4]; 3 healthy male subjects,5.80E-02 rem/mCi
same,"absorbed dose, spleen",[4]; 3 healthy male subjects,7.36E-02 rem/mCi
same,"absorbed dose, urinary bladder wall",[4]; 3 healthy male subjects,2.06E-01 rem/mCi
same,effective dose overall,[4]; 3 healthy male subjects,5.08E-02 rem/mCi
same,retention in the GI tract in humans in contrast to mice,"[4]; human, in vivo",substantially lower
same,organs with the highest accumulation,"[4]; scans 20, 48 and 76 min post injection","the bladder, the kidneys, the spleen, the salivary glands, and the heart"
same,route of clearance,dynamic microPET/CT time-activity curves,predominantly cleared through the kidney
same,retention in the brain and the myocardium,"mouse, in vivo",low retention
same,organs with accumulated radioactivity,one hour after intravenous injection,"thymus, spleen, intestine, bone/bone marrow and, to a lesser extent, in the liver"
same,"Spleen, % ID/g per organ normalized to % ID/g muscle","spleen, 60 min after intravenous injection, 3 mice",2.16 +/− 0.48 % ID/g per organ normalized to % ID/g muscle
same,"Thymus, % ID/g per organ normalized to % ID/g muscle","thymus, 60 min after intravenous injection, 3 mice",3.29 +/− 0.48 % ID/g per organ normalized to % ID/g muscle
